Measurements as given in US10330685B2, “Markers for sepsis treatment” (priority 2014, dated 2019).

Key:
sepsis patients = test: Phase I clinical trial of L-carnitine treatment for sepsis: survival; assay type: in vivo, human
Protocol: (§1) These and other features, aspects, and advantages of the present technology will become better understood with regard to the following drawings, which represent the analysis of patients enrolled in a phase I study of L-carnitine in septic shock (see, e.g., Puskarich et al. J Parenter Enteral Nutr 38(6): 736-743, incorporated herein by reference in its entirety). From this study, serum samples collected from carnitine-treated (n=16) and placebo-treated (n=14) patients were assayed by ^1H-nuclear magnetic resonance (NMR) and the resulting spectra were used to identify and quantify metabolites; a total of 38 metabolites were identified in each sample:
(§2) Serum samples were collected from patients enrolled in a previously published double-blind randomized phase I clinical trial of L-carnitine treatment for sepsis (see, e.g., Puskarich et al., J Parenter Enteral Nutr 38(6): 736-743, incorporated herein by reference in its entirety). From this study, serum samples collected from carnitine-treated (n=16) and placebo-treated (n=15) patients were assayed by ^1H-nuclear magnetic resonance (NMR) and the resulting spectra were used to identify and quantify metabolites; a total of 38 metabolites were identified in each sample.
Serum was assayed prior to (T0) and following (T24, T48) treatment with a single 12-g dose of LC or placebo. […]

septic shock = septic shock patients; cited from earlier work
[1] = Serum metabolites by 1H-NMR before and 24 h and 48 h after L-carnitine treatment; assay type: in vivo, human
Protocol: as §1
as §2, with “sample. […]” for “sample.”
The levels of these metabolites were also measured in samples acquired at 24 hours and 48 hours after treatment with L-carnitine. […]

C[N+](C)(C)C[C@H](O)CC(=O)[O-] [L-carnitine]
mortality rate (sepsis patients; "high" ketone sepsis patients treated with LC compared with "low" ketone patients): higher mortality rate | survival (sepsis patients; patients with "low" amounts of ketone prior to L-carnitine treatment vs patients with "high" amounts): significantly better survival | hemodynamic parameters (right atrial pressure, mean arterial pressure, arterial oxygenation) (septic shock): improvements | carnitine levels at 24 hours ([1]; in vivo): higher carnitine levels | citrate levels ([1]; serum, LC-treated patients, following a profound decline): increased
